Data taken from patent publication US20250122225A1, “MASP-2 INHIBITORS AND METHODS OF USE” (Omeros Corporation, priority 2023, published 2025).

How the values were obtained:
MASP-2 (CCP1-CCP2-SP) = target: T1, MASP-2 (CCP1-CCP2-SP) (Homo sapiens, UniProt O00187); assay: Enzymatic assay for MASP-2 inhibitory activity (fluorogenic substrate); format: biochemical
T1 construct: 15 μL of Enzyme MASP-2 (CCP1-CCP2-SP) in Assay Buffer
How it was run: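 MASP-2 (CCP1-CCP2-SP) cleaved a fluorogenic substrate based on the C2 cleavage site in 20 mM HEPES pH 7.4, 140 mM NaCl, 0.1% Tween 20 at room temperature. After 20 min the reaction was stopped with 0.1 M acetic acid and fluorescence read. % activity was normalized to DMSO-only and no-enzyme controls; IC50 taken as Ki.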

human α-thrombin = target: T2, human α-thrombin (Homo sapiens, UniProt P00734); assay: Enzymatic assay for thrombin (fluorogenic peptide substrate Boc-VPR-AMC); format: biochemical
T2 construct: enzyme (human α-thrombin (BioPharm® Lab.)) in assay buffer; purchased BioPharm® Lab
How it was run: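 Human α-thrombin was run with the fluorogenic substrate Boc-VPR-AMC in 20 mM Hepes pH 7.4, 140 mM NaCl, 0.1% Tween 20 at room temperature for 20 min, then stopped with 0.1 M acetic acid. % activity was normalized to DMSO and no-enzyme controls. Under linear conditions IC50 equalled Ki, except for tight-binding inhibitors.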

T1 sequence (O00187 445-686 limits assumed): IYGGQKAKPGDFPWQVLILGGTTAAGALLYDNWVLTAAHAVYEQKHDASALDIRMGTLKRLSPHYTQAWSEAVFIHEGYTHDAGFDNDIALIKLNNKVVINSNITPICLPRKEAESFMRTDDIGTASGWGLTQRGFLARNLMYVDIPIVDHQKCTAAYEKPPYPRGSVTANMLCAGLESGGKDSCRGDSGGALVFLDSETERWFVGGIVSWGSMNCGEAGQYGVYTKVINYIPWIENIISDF
T1 sequence (O00187 287-444 partner limits assumed): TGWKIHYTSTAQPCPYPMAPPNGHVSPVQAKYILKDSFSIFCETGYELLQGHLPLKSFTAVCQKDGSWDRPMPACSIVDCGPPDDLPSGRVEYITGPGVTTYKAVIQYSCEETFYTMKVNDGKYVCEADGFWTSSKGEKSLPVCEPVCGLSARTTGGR

For Cc1ccc(C)c(CNc2ncc3n(c2=O)[C@H](C(=O)NCc2cc4cnc(C)cc4[nH]2)CC3)c1 [Compound 57, (S)-3-((2,5-dimethylbenzyl)amino)-N-((6-methyl-1H-pyrrolo[3,2-c]pyridin-2-yl)methyl)-4-oxo-4,6,7,8-tetrahydropyrrolo[1,2-a]pyrazine-6-carboxamide], which Ki (MASP-2 (CCP1-CCP2-SP)) is on record?
The Ki was less than 500 nM.

What about the Ki (human α-thrombin) of the same molecule?
Its Ki is 10000 to 25000 nM.

Which results are given for Cc1cc2[nH]c(CNC(=O)[C@@H]3CCc4cnc(NCc5cccc(C)c5C)c(=O)n43)cc2cn1 [Compound 58, (S)-3-((2,3-dimethylbenzyl)amino)-N-((6-methyl-1H-pyrrolo[3,2-c]pyridin-2-yl)methyl)-4-oxo-4,6,7,8-tetrahydropyrrolo[1,2-a]pyrazine-6-carboxamide]?
Ki (MASP-2 (CCP1-CCP2-SP)): < 500 nM; Ki (human α-thrombin): > 25000 nM

For Cc1cccc(CNc2ncc3n(c2=O)[C@H](C(=O)NCc2cc4cnccc4[nH]2)CC3)c1C [Compound 59, (S)-N-((1H-pyrrolo[3,2-c]pyridin-2-yl)methyl)-3-((2,3-dimethylbenzyl)amino)-4-oxo-4,6,7,8-tetrahydropyrrolo[1,2-a]pyrazine-6-carboxamide], which Ki (MASP-2 (CCP1-CCP2-SP)) is on record?
The Ki was less than 500 nM.

What about the Ki (human α-thrombin) of the same molecule?
Its Ki is 500 to 2500 nM.

For Cc1cccc(CNc2ncc3n(c2=O)[C@H](C(=O)NCc2ccc(N)nc2C)CC3)c1C [Compound 60, (S)-N-((6-amino-2-methylpyridin-3-yl)methyl)-3-((2,3-dimethylbenzyl)amino)-4-oxo-4,6,7,8-tetrahydropyrrolo[1,2-a]pyrazine-6-carboxamide], which Ki (MASP-2 (CCP1-CCP2-SP)) is on record?
The Ki was less than 500 nM.

And the Ki (human α-thrombin)?
The Ki was less than 500 nM.

Which Ki (MASP-2 (CCP1-CCP2-SP)) does the source give for Cc1cc2[nH]c(CNC(=O)[C@@H]3CCc4cnc(NCc5cccc(C)c5F)c(=O)n43)cc2cn1 [Compound 61, (S)-3-((2-fluoro-3-methylbenzyl)amino)-N-((6-methyl-1H-pyrrolo[3,2-c]pyridin-2-yl)methyl)-4-oxo-4,6,7,8-tetrahydropyrrolo[1,2-a]pyrazine-6-carboxamide] here?
Its Ki is less than 500 nM.

What about the Ki (human α-thrombin) of the same molecule?
The Ki was 2500 to 10000 nM.

With Cc1cccc(CNc2ncc3n(c2=O)[C@H](C(=O)NCc2ccc(N)nc2C)CC3)c1F [Compound 62, (S)-N-((6-amino-2-methylpyridin-3-yl)methyl)-3-((2-fluoro-3-methylbenzyl)amino)-4-oxo-4,6,7,8-tetrahydropyrrolo[1,2-a]pyrazine-6-carboxamide] as the molecule, how does the Ki (MASP-2 (CCP1-CCP2-SP)) read?
The Ki was less than 500 nM.

What about the Ki (human α-thrombin) of the same molecule?
Its Ki is less than 500 nM.

Which results are given for Cc1ccc(F)cc1CNc1ncc2n(c1=O)[C@H](C(=O)NCc1cc3cnccc3[nH]1)CC2 [Compound 63, (S)-N-((1H-pyrrolo[3,2-c]pyridin-2-yl)methyl)-3-((5-fluoro-2-methylbenzyl)amino)-4-oxo-4,6,7,8-tetrahydropyrrolo[1,2-a]pyrazine-6-carboxamide]?
Ki (MASP-2 (CCP1-CCP2-SP)): < 500 nM; Ki (human α-thrombin): 500 to 2500 nM

Cc1cc2[nH]c(CNC(=O)[C@@H]3CCc4cnc(NCc5cc(F)ccc5C)c(=O)n43)cc2cn1 [Compound 64, (S)-3-((5-fluoro-2-methylbenzyl)amino)-N-((6-methyl-1H-pyrrolo[3,2-c]pyridin-2-yl)methyl)-4-oxo-4,6,7,8-tetrahydropyrrolo[1,2-a]pyrazine-6-carboxamide] was tested. Which Ki (MASP-2 (CCP1-CCP2-SP)) did it give?
Its Ki is less than 500 nM.

And the Ki (human α-thrombin)?
Its Ki is 10000 to 25000 nM.

For Cc1ccc(F)cc1CNc1ncc2n(c1=O)[C@H](C(=O)NCc1ccc(N)nc1C)CC2 [Compound 65, (S)-N-((6-amino-2-methylpyridin-3-yl)methyl)-3-((5-fluoro-2-methylbenzyl)amino)-4-oxo-4,6,7,8-tetrahydropyrrolo[1,2-a]pyrazine-6-carboxamide], which Ki (MASP-2 (CCP1-CCP2-SP)) is on record?
The Ki was less than 500 nM.

And the Ki (human α-thrombin)?
Its Ki is less than 500 nM.

Cc1nc(N)ccc1CNC(=O)[C@@H]1CCc2cnc(NCc3cccc(C(C)(C)O)c3)c(=O)n21 [Compound 66, (S)-N-((6-amino-2-methylpyridin-3-yl)methyl)-3-((3-(2-hydroxypropan-2-yl)benzyl)amino)-4-oxo-4,6,7,8-tetrahydropyrrolo[1,2-a]pyrazine-6-carboxamide] was tested. Which Ki (MASP-2 (CCP1-CCP2-SP)) did it give?
The Ki was less than 500 nM.

And the Ki (human α-thrombin)?
The Ki was less than 500 nM.
